Columns and labels:
[1] = biological target: Sigma intracellular receptor 2 (Homo sapiens, UniProt Q5BJF2); experiment: GPCRScan assay: inhibition of Sigma 2; design: radioligand conc. used [nm] 5.0, parental cells HEKT
[2] = tested on: Tyrosine-protein kinase ABL1 (Homo sapiens), P00519 [H396P]; settings: Compound concentration 1000.0 nM
[3] = biological target: Atypical kinase COQ8B, mitochondrial (Homo sapiens) (UniProt Q96D53); settings: Compound concentration 1000.0 nM
[4] = biological target: RAC-beta serine/threonine-protein kinase (Homo sapiens) (UniProt P31751); settings: Compound concentration 1000.0 nM
[5] = biological target: ALK tyrosine kinase receptor (Homo sapiens) (UniProt Q9UM73); settings: Compound concentration 1000.0 nM
[6] = biological target: Bone morphogenetic protein receptor type-1B (Homo sapiens) (UniProt O00238); settings: Compound concentration 1000.0 nM
[7] = biological target: Mitotic checkpoint serine/threonine-protein kinase BUB1 (Homo sapiens) (UniProt O43683); settings: Compound concentration 1000.0 nM
[8] = biological target: Calcium/calmodulin-dependent protein kinase type 1 (Homo sapiens) (UniProt Q14012); settings: Compound concentration 1000.0 nM
[9] = biological target: Peripheral plasma membrane protein CASK (Homo sapiens) (UniProt O14936); settings: Compound concentration 1000.0 nM
[10] = biological target: Serine/threonine-protein kinase Chk1 (Homo sapiens) (UniProt O14757); settings: Compound concentration 1000.0 nM
[11] = biological target: Dual specificity protein kinase CLK3 (Homo sapiens) (UniProt P49761); settings: Compound concentration 1000.0 nM
[12] = biological target: Death-associated protein kinase 1 (Homo sapiens) (UniProt P53355); settings: Compound concentration 1000.0 nM
[13] = biological target: Serine/threonine-protein kinase DCLK2 (Homo sapiens) (UniProt Q8N568); settings: Compound concentration 1000.0 nM
[14] = biological target: Serine/threonine-protein kinase 17B (Homo sapiens) (UniProt O94768); settings: Compound concentration 1000.0 nM
[15] = tested on: Epidermal growth factor receptor (Homo sapiens), P00533 [G719C]; settings: Compound concentration 1000.0 nM
[16] = tested on: Epidermal growth factor receptor (Homo sapiens), P00533 [L858R]; settings: Compound concentration 1000.0 nM
[17] = biological target: Ephrin type-B receptor 4 (Homo sapiens) (UniProt P54760); settings: Compound concentration 1000.0 nM
[18] = biological target: Ephrin type-B receptor 6 (Homo sapiens) (UniProt O15197); settings: Compound concentration 1000.0 nM
[19] = biological target: Fibroblast growth factor receptor 1 (Homo sapiens) (UniProt P11362); settings: Compound concentration 1000.0 nM
[20] = biological target: Beta-adrenergic receptor kinase 1 (Homo sapiens) (UniProt P25098); settings: Compound concentration 1000.0 nM
[21] = biological target: G protein-coupled receptor kinase 3 (Homo sapiens) (UniProt P35626); settings: Compound concentration 1000.0 nM
[22] = biological target: Mitogen-activated protein kinase 9 (Homo sapiens) (UniProt P45984); settings: Compound concentration 1000.0 nM
[23] = biological target: Mast/stem cell growth factor receptor Kit (Homo sapiens) (UniProt P10721); settings: Compound concentration 1000.0 nM
[24] = tested on: Mast/stem cell growth factor receptor Kit (Homo sapiens), P10721 [D816H]; settings: Compound concentration 1000.0 nM
[25] = biological target: Serine/threonine-protein kinase LATS1 (Homo sapiens) (UniProt O95835); settings: Compound concentration 1000.0 nM
[26] = biological target: Serine/threonine-protein kinase MARK1 (Homo sapiens) (UniProt Q9P0L2); settings: Compound concentration 1000.0 nM
[27] = tested on: Hepatocyte growth factor receptor (Homo sapiens), P08581 [M1250T]; settings: Compound concentration 1000.0 nM
[28] = biological target: Serine/threonine-protein kinase 24 (Homo sapiens) (UniProt Q9Y6E0); settings: Compound concentration 1000.0 nM
[29] = biological target: Myosin light chain kinase, smooth muscle (Homo sapiens) (UniProt Q15746); settings: Compound concentration 1000.0 nM
[30] = biological target: Serine/threonine-protein kinase Nek2 (Homo sapiens) (UniProt P51955); settings: Compound concentration 1000.0 nM
[31] = biological target: Serine/threonine-protein kinase NIM1 (Homo sapiens) (UniProt Q8IY84); settings: Compound concentration 1000.0 nM
[32] = biological target: Serine/threonine-protein kinase PAK 3 (Homo sapiens) (UniProt O75914); settings: Compound concentration 1000.0 nM
[33] = biological target: Membrane-associated tyrosine- and threonine-specific cdc2-inhibitory kinase (Homo sapiens) (UniProt Q99640); settings: Compound concentration 1000.0 nM
[34] = biological target: cAMP-dependent protein kinase catalytic subunit PRKX (Homo sapiens) (UniProt P51817); settings: Compound concentration 1000.0 nM
[35] = biological target: RAF proto-oncogene serine/threonine-protein kinase (Homo sapiens) (UniProt P04049); settings: Compound concentration 1000.0 nM
[36] = tested on: Proto-oncogene tyrosine-protein kinase receptor Ret (Homo sapiens), P07949 [V804L]; settings: Compound concentration 1000.0 nM
[37] = tested on: Proto-oncogene tyrosine-protein kinase receptor Ret (Homo sapiens), P07949 [V804M]; settings: Compound concentration 1000.0 nM
[38] = biological target: Ribosomal protein S6 kinase alpha-5 (Homo sapiens) (UniProt O75582); settings: Compound concentration 1000.0 nM
[39] = biological target: Serine/threonine-protein kinase Sgk2 (Homo sapiens) (UniProt Q9HBY8); settings: Compound concentration 1000.0 nM
[40] = biological target: Serine/threonine-protein kinase 32B (Homo sapiens) (UniProt Q9NY57); settings: Compound concentration 1000.0 nM
[41] = biological target: 5-hydroxytryptamine receptor 2A (Homo sapiens) (UniProt P28223); settings: Compound concentration 10.0 uM
[42] = biological target: Sodium-dependent serotonin transporter (Homo sapiens) (UniProt P31645); settings: Compound concentration 10.0 uM

Sigma intracellular receptor 2, sequence (Q5BJF2 whole entry): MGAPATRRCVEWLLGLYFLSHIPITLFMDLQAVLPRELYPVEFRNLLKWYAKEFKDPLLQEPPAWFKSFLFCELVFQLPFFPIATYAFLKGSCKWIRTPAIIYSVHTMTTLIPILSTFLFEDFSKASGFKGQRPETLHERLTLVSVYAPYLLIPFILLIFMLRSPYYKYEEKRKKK
G protein-coupled receptor kinase 3 (Homo sapiens), sequence (P35626 whole entry): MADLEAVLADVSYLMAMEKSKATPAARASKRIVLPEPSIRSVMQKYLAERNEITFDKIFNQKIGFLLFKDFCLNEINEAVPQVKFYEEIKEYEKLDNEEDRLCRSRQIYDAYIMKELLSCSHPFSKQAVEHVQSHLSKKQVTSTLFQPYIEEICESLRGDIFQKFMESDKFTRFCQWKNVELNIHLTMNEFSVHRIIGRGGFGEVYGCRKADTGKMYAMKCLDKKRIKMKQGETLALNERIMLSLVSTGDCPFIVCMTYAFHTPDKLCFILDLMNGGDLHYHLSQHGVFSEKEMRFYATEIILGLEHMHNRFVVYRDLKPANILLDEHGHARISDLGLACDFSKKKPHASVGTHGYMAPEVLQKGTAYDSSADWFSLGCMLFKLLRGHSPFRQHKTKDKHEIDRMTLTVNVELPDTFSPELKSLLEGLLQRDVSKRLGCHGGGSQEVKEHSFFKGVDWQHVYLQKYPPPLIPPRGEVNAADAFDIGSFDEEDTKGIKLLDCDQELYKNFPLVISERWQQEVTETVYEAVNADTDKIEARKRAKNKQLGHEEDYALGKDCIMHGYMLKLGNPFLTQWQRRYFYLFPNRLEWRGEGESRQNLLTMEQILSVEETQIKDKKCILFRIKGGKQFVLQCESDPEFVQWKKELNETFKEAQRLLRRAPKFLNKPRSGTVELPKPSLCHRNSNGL
Serine/threonine-protein kinase Nek2 (Homo sapiens), sequence (P51955 whole entry): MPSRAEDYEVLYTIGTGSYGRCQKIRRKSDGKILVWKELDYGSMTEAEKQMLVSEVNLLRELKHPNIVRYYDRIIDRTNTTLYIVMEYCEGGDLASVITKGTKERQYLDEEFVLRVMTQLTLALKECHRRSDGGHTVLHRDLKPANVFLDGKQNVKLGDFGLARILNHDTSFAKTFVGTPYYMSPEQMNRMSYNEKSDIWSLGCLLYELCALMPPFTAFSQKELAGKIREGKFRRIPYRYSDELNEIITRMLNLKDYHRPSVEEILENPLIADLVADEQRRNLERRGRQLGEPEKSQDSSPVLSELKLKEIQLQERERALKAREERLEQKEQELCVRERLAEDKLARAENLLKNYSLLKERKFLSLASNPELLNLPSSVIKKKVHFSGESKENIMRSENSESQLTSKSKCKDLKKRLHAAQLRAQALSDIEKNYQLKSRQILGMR
Atypical kinase COQ8B, mitochondrial (Homo sapiens), sequence (Q96D53 whole entry): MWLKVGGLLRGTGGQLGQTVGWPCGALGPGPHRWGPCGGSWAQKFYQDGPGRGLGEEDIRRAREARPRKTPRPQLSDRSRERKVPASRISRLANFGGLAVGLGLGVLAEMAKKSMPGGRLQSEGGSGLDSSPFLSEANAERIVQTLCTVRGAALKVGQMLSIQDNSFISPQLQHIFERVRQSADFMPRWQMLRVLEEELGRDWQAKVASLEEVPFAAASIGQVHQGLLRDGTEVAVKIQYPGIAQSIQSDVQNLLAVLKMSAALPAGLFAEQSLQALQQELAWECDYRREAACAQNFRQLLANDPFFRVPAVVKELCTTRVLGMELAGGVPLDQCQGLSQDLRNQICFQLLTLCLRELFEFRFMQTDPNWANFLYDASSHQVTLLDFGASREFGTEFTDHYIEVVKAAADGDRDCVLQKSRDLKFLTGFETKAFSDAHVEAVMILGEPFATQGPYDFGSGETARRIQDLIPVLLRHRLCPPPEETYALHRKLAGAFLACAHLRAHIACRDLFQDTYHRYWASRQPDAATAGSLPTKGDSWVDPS
Death-associated protein kinase 1 (Homo sapiens), sequence (P53355 whole entry, looked up): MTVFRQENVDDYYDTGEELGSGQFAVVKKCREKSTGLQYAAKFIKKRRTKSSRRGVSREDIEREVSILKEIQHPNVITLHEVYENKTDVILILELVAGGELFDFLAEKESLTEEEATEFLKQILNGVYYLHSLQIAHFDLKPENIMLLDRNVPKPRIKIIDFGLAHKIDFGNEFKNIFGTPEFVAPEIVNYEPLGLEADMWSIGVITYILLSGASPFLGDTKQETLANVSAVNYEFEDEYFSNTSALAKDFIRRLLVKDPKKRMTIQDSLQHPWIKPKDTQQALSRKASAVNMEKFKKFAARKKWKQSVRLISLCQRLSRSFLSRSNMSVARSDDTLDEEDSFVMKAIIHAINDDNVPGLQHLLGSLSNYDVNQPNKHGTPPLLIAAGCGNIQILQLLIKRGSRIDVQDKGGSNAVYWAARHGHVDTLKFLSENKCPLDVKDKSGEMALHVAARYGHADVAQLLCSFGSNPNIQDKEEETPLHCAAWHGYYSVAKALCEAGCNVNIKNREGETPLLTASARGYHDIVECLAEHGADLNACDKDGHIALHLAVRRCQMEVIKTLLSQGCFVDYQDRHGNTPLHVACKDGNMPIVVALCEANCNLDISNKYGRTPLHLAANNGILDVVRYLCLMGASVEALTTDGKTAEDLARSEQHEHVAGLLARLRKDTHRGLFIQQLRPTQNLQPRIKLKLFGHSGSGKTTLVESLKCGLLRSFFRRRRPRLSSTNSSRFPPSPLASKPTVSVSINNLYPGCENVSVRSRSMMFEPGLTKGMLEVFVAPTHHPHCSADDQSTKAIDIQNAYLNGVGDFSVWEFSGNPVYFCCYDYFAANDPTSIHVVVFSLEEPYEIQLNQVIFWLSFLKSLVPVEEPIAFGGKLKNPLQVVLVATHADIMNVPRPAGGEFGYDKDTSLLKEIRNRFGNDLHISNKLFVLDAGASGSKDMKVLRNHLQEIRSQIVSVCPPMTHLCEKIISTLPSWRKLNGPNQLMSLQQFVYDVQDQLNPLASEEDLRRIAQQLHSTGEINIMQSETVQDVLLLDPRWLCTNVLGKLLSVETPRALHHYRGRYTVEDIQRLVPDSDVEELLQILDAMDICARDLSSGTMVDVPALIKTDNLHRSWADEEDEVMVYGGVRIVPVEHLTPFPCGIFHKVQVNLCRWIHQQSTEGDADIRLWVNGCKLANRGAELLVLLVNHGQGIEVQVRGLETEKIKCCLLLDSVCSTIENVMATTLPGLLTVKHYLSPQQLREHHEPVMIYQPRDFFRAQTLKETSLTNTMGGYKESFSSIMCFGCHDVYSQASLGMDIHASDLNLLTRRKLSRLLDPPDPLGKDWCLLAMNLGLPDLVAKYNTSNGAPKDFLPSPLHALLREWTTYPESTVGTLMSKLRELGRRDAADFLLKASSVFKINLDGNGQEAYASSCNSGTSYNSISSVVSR
Serine/threonine-protein kinase LATS1 (Homo sapiens), sequence (O95835 whole entry): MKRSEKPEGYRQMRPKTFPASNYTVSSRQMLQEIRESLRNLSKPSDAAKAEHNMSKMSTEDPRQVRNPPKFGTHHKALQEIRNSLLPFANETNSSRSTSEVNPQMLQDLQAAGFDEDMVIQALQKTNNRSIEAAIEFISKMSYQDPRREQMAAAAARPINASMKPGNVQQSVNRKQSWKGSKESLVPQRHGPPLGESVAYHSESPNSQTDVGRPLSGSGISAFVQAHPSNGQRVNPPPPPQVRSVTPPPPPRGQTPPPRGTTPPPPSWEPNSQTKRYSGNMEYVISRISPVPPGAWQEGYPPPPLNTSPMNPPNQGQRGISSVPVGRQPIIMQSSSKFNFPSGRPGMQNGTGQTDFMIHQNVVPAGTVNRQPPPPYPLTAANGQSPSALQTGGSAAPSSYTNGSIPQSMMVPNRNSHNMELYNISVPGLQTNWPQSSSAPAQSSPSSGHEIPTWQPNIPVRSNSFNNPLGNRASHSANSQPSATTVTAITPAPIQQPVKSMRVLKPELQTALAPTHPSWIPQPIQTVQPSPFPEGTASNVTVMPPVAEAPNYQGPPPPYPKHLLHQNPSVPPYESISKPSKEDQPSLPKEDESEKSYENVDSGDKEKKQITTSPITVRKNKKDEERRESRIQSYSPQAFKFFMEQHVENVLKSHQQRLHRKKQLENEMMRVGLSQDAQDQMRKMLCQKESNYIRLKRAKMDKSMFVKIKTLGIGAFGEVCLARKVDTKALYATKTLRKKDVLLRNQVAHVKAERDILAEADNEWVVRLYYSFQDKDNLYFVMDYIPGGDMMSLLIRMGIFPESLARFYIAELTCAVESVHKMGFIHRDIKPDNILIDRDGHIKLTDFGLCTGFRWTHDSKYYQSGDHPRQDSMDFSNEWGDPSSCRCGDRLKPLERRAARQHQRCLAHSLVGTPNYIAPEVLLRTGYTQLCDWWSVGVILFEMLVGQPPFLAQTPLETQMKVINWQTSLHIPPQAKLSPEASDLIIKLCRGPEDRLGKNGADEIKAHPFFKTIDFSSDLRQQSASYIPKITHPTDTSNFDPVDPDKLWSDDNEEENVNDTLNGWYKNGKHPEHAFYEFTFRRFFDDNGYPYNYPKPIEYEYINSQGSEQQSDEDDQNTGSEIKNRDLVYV
5-hydroxytryptamine receptor 2A (Homo sapiens), sequence (P28223 whole entry): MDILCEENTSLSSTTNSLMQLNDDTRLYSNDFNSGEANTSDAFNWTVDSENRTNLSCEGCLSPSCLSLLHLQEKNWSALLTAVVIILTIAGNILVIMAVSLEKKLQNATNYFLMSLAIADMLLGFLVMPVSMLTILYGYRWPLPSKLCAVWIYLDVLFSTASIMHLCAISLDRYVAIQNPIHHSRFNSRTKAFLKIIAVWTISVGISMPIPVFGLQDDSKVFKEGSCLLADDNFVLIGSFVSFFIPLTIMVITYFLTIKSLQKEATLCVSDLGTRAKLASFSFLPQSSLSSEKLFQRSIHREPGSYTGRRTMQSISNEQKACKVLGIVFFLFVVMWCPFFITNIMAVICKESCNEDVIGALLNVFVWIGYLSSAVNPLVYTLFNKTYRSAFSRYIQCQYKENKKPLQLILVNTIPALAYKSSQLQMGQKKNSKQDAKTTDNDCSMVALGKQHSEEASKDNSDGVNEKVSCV

O=C(NCc1ncc(C(F)(F)F)cc1Cl)c1ccc2c(c1)C1(CCS(=O)(=O)CC1)[C@H](C1CC1)N2S(=O)(=O)c1ccc(F)cc1 [BAY-784]
1110 nM: Ki [1]
active: residual activity [19] 49%
inactive: residual activity [2] 80% | residual activity [3] 83% | residual activity [4] 100% | residual activity [5] 98% | residual activity [6] 93% | residual activity [7] 68% | residual activity [8] 84% | residual activity [9] 75% | residual activity [10] 100% | residual activity [11] 86% | residual activity [12] 100% | residual activity [13] 100% | residual activity [14] 85% | residual activity [15] 78% | residual activity [16] 94% | residual activity [17] 100% | residual activity [18] 80% | residual activity [20] 56% | residual activity [21] 99% | residual activity [22] 76% | residual activity [23] 100% | residual activity [24] 79% | residual activity [25] 91% | residual activity [26] 100% | residual activity [27] 89% | residual activity [28] 100% | residual activity [29] 77% | residual activity [30] 89% | residual activity [31] 83% | residual activity [32] 91% | residual activity [33] 100% | residual activity [34] 88% | residual activity [35] 100% | residual activity [36] 92% | residual activity [37] 100% | residual activity [38] 100% | residual activity [39] 83% | residual activity [40] 100% | inhibition [41] -4.7% | inhibition [42] -5.4%

O=C(NCc1ncc(C(F)(F)F)cc1Cl)c1ccc2c(c1)C1(CCS(=O)(=O)CC1)[C@@H](C1CC1)N2S(=O)(=O)c1ccc(F)cc1 [BAY-786]
inactive: residual activity [2] 83% | residual activity [3] 85% | residual activity [4] 100% | residual activity [5] 73% | residual activity [6] 85% | residual activity [8] 97% | residual activity [9] 64% | residual activity [10] 100% | residual activity [11] 100% | residual activity [12] 100% | residual activity [13] 100% | residual activity [14] 87% | residual activity [15] 90% | residual activity [16] 100% | residual activity [17] 94% | residual activity [18] 94% | residual activity [19] 100% | residual activity [20] 80% | residual activity [21] 100% | residual activity [22] 82% | residual activity [23] 82% | residual activity [24] 64% | residual activity [25] 97% | residual activity [26] 100% | residual activity [27] 100% | residual activity [28] 100% | residual activity [29] 74% | residual activity [30] 88% | residual activity [31] 78% | residual activity [32] 89% | residual activity [33] 92% | residual activity [34] 100% | residual activity [35] 100% | residual activity [36] 100% | residual activity [37] 100% | residual activity [38] 97% | residual activity [39] 77% | residual activity [40] 96% | inhibition [41] 5.01% | inhibition [42] -4.88%
active: residual activity [7] 1.9%
2000 nM: Ki [1]

Source: ChEMBL document CHEMBL4507266, “Data for DCP probe BAY-784” (2021)
